The target of series [1] is T1, RSV fusion (pCDNA3.1_A2_F in HEK 293T cells) (Human respiratory syncytial virus A, UniProt P03420).
T1 construct: expressed in transfected cells; host or cells: HEK 293T (ECACC 12022001)
The experiment in a line: RSV fusion assay. Format: cell-based. The procedure: HEK 293T ((ECACC 12022001) cells were cultured in T75 culture flasks in Dulbecco's medium (DMEM) containing 10% Foetal Bovine serum (FBS), 50 units per mL Penicillin and 50 μg/mL Streptomycin and warmed to 37° C. prior to use. The cells were passaged by first washing briefly with 5 mL Phosphate buffered saline (PBS), followed by addition of 2 mL of Trypsin Ethylenediaminetetraacetic acid (EDTA) to detach the cells. Once cells had detached from the flask, 8 mL media was then added to and the cells dispersed via pipetting against the bottom of the flask.
The cells were counted and diluted to 3×10^5 cells/ml in fresh media. Two T75 flasks were each seeded with 15.6 mL diluted cells, cells were also subcultured at a ratio of between 1:2 and 1:10, to continue the stock. The flasks were then incubated for 24 h at 37° C. and 5% CO2.
The plasmid DNA (for pFR-Luc and pcDNA3. 1_Gal4/NFKB) to be transfected into the HEK 293T cells was first prepared in serum free media (Opti-MEM, Invitrogen), containing the transfection reagent FuGENE® 6 (Promega). Serum free media was placed in a 1.5 mL eppendorf tube then the FuGENE 6 was added into the media. The tube was vortexed for 1 s before being incubated at RT for 5 min. 7.79 ng of both pFR_luc and pCDNA3.1_A2_F plasmid DNA were added to tube 1 and 7.79 ng of pCDNA3.1_GAL4-NF-κB plasmid to tube 2. The tubes were vortexed for 1 second and then incubated at room temperature for 15 min. Each transfection mixture was then added into the media of one of the T75 flasks of 293T cells. Cells were cultured for 24h at 37° C., 5% CO2 in a humidified incubator.
Compounds were diluted (in a polypropylene round-bottomed 96 well plate) 1:3 in a twelve point dilution curve to give top [final] of either 25 μM, 3 μM, 1 μM or 500 nM. A control compound was included in every assay at a top concentration of 3 μM. Transfected cells were counted and diluted to 4×10^5 cells/mL in fresh media. 50 μL of transfection population 1 were added to all wells of the 96 well flat bottom white opaque assay plates. 100 μL diluted compound (2 rows per compound), control compound (one row) and controls (DMSO (0% inhibition, four wells), 3 μM positive control (100% inhibition, four wells) and media (transfection population 1 only, four wells) were added to the appropriate wells. 50 μL of the diluted (4×10^5 cells/mL) population 2 cells when then added to all wells, except the four wells of transfection population 1 only where an extra 50 μL of this cells population was added.
The plates were then incubated for 24 h at 37° C. and 5% CO2. After this time, 100 μL was removed from all wells and 60 μL of ONE-Glo™ (Promega) reagent, pre-equilibrated to room temperature, was added. Plates were then incubated for 3 min at room temperature before luminescence was read, using the ONE-Glo protocol, on the GloMax Explorer System (Promega) multimode reader. Analysis was carried out in Dotmatics software. All raw data were background subtracted (subtraction of mean 3 μM positive control value), before IC50 calculation.

The next series relates to RSV A2 VR-1540. The experiment in a line: RSV plaque reduction assay. Format: cell-based. As to conditions: human respiratory syncytial virus; Strain A2; n = 1; HEp-2 cells. How it is done:
HEp-2 cells (ATCC, CCL23) were passaged in flasks and seeded in 96-well plates in DMEM containing antibiotics and supplemented with 10% FBS. During inoculation and subsequent incubation, cells were cultured in DMEM containing 3% FBS. 100 plaque forming unit (PFU)/well of RSV (RSV A2 VR-1540) was mixed with ten serial dilutions of compound. Subsequently, 100 μL of the virus/compound mixtures was added to confluent HEp-2 cell monolayers. The cells and virus/compound mixtures were incubated at 35° C. in a humidified 5% CO2 incubator for 1 day.
Cells were washed twice with PBS before adding 50% v/v EtOH/MeOH, and then stored at −20° C. On the day of the staining, fixative was first removed from the plates. Plates were washed 3× with PBS. A pre-titrated amount of the primary antibody was added in 60 μL PBS/2% milk powder, and plates incubated for 1 h at […]. The plates were washed 3× with PBS/0.05% Tween20 before addition of goat anti-mouse horse radish peroxidase in 60 μL PBS/2% milk powder, and incubated for 1 h at rt. Following three wash steps with PBS/0.05% Tween20, 60 μL ready-to-use TrueBlue was added and plates were incubated at rt for 10-15 min before adding MilliQ water. Plates were washed once with water, incubated for 30-60 min and after removal of water, air-dried in the dark.
Plates were scanned and analyzed using the Immunospot S6 UV analyzer, which is equipped with BioSpot analysis software for counting immunostained plaques (virospots). Plaque counts were used to calculate % infection relative to the mean of the spot count (SC) in the virus control wells for RSV. IC50/IC90 values were calculated as 50% or 90% reduction in signal, respectively, by interpolation of inhibition curves fitted with a 4-parameter nonlinear regression with a variable slope in GraphPad 5.0 (Prism).
Background: Plaques are areas of infected cells; plaque reduction assays count them against a control.

The subject of another series is MDR1. Briefly: in vitro. Format: in vitro ADME. The following applies: dog, MDCK-MDR1. How it is done: MDR1-MDCK cells obtained from the NIH (Rockville, Md., USA) are used between passage numbers 6-30. Cells are seeded onto Millipore Multiscreen Transwell plates at 3.4×10^5 cells/cm^2. The cells are cultured in DMEM and media is changed on day 3. On day 4 the permeability study is performed. Cell culture and assay incubations are carried out at 37° C. in an atmosphere of 5% CO2 with a relative humidity of 95%. On the day of the assay, the monolayers are prepared by rinsing both basolateral and apical surfaces twice with Hanks Balanced Salt Solution (HBSS) at the desired pH warmed to 37° C. Cells are then incubated with HBSS at the desired pH in both apical and basolateral compartments for 40 min to stabilise physiological parameters.
The dosing solutions are prepared by diluting test compound with assay buffer to give a final test compound concentration of 10 μM (final DMSO concentration of 1% v/v). The fluorescent integrity marker lucifer yellow is also included in the dosing solution. Analytical standards are prepared from test compound DMSO dilutions and transferred to buffer, maintaining a 1% v/v DMSO concentration.
For assessment of A-B permeability, HBSS is removed from the apical compartment and replaced with test compound dosing solution. The apical compartment insert is then placed into a companion plate containing fresh buffer (containing 1% v/v DMSO). For assessment of B-A permeability, FIBSS is removed from the companion plate and replaced with test compound dosing solution. Fresh buffer (containing 1% v/v DMSO) is added to the apical compartment insert, which is then placed into the companion plate. At 60 min the apical compartment inserts and the companion plates are separated and apical and basolateral samples diluted for analysis. Test compound permeability is assessed in duplicate. Compounds of known permeability characteristics are run as controls on each assay plate.
Test and control compounds are quantified by LC-MSMIS cassette analysis using an 8-point calibration with appropriate dilution of the samples. The starting concentration (C0) is determined from the dosing solution and the experimental recovery calculated from C0 and both apical and basolateral compartment concentrations. The integrity of the monolayer throughout the experiment is checked by monitoring lucifer yellow permeation using fluorimetric analysis. Lucifer yellow permeation is high if monolayers have been damaged.

Each structure is given as a SMILES string.

T1 sequence (P03420 26-109): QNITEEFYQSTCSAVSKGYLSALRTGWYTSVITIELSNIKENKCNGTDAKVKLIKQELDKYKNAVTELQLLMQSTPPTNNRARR
T1 sequence (P03420 137-574): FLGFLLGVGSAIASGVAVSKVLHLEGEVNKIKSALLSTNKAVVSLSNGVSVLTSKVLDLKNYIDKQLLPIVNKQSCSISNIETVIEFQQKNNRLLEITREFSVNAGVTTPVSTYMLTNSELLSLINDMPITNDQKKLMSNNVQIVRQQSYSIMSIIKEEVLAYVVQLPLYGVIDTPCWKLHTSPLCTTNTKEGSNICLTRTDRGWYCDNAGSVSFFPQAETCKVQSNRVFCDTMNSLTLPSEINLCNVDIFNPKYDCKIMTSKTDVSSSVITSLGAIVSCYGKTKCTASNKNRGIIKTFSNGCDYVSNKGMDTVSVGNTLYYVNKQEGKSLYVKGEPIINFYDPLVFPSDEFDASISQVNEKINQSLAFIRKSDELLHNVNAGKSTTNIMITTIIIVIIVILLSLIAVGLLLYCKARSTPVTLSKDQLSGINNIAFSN

With `CS(=O)(=O)N1CCN(CCCn2c(CN3C(=O)C4(CC4)c4ccc(F)cc43)nc3cc(Cl)ccc32)CC1` [Compound 1, 1′-({5-Chloro-1-[3-(4-methanesulfonylpiperazin-1-yl)propyl]-1H-1,3-benzodiazol-2-yl}methyl)-6′-fluoro-1,2′-dihydrospiro[cyclopropane-1,3′-indole]-2′-one], it took 19 nM to reach half-maximal inhibition in series [1] (IC50). In the series on RSV A2 VR-1540, the IC50 (commonly the concentration that gives 50% inhibition) was 5.9 nM and the IC90 – broadly, the point of the concentration-response curve where the effect stands at 90% – worked out at 50 nM.

On to `CS(=O)(=O)N1CCN(CCn2c(CN3C(=O)C4(CC4)c4ccc(F)cc43)nc3cc(Cl)ccc32)CC1` [Compound 9, 1′-({5-chloro-1-[2-(4-methanesulfonylpiperazin-1-yl)ethyl]-1H-1,3-benzodiazol-2-yl}methyl)-6′-fluoro-1′,2′-dihydrospiro[cyclopropan-1,3′-indole]-2′-one], for which the concentration for half-maximal inhibition (IC50) in series [1] was 15 nM; with RSV A2 VR-1540, 4.2 nM. In addition, the 90% effect level with RSV A2 VR-1540 (IC90) was put at 28 nM.

For `CS(=O)(=O)CCNCCCn1c(CN2C(=O)C3(CC3)c3ccc(F)cc32)nc2cc(Cl)ccc21` [Compound 10, 1′-[(5-Chloro-1-{3-[(2-methanesulfonylethyl)amino]propyl}-1H-1,3-benzodiazol-2-yl)methyl]-6′-fluoro-1′,2′-dihydrospiro[cyclopropane-1,3′-indole]-2′-one], the concentration for half-maximal inhibition (IC50) in series [1] was found to be 12 nM. In the series on RSV A2 VR-1540, the half-inhibitory concentration (IC50) came to 2.5 nM and the concentration for an effect of 90% (IC90) came out at 31 nM.

With `CCS(=O)(=O)CCNCCCn1c(CN2C(=O)C3(CC3)c3ccc(F)cc32)nc2cc(Cl)ccc21` [Compound 11, 1′-{[5-Chloro-1-(3-{[2-(ethanesulfonyl)ethyl]amino}propyl)-1H-1,3-benzodiazol-2-yl]methyl}-6′-fluoro-1′,2′-dihydrospiro[cyclopropane-1,3′-indole]-2′-one], the half-maximal inhibitory concentration (IC50) in series [1] amounted to 24 nM; with RSV A2 VR-1540, 5 nM. For the same molecule, the concentration for an effect of 90% (IC90) in the series with RSV A2 VR-1540 was 41 nM.

In series [1], `CC(C)[C@H](NCCCn1c(CN2C(=O)C3(CC3)c3ccc(F)cc32)nc2cc(Cl)ccc21)C(N)=O` [Compound 12, (2S)-2-({3-[5-chloro-2-({6′-fluoro-2′-oxo-1′,2′-dihydrospiro[cyclopropane-1,3′-indole]-1′-yl}methyl)-1H-1,3-benzodiazol-1-yl]propyl}amino)-3-methylbutanamide] displayed a 50% inhibitory concentration (IC50) of 71 nM. In addition, in the series on RSV A2 VR-1540, the IC50 turned out to be 29 nM and the IC90 came out at 200 nM.

Consider `CS(=O)(=O)C1CN(CCCn2c(CN3C(=O)C4(CC4)c4ccc(F)cc43)nc3cc(Cl)ccc32)C1` [Compound 13, 1′-({5-Chloro-1-[3-(3-methanesulfonylazetidin-1-yl)propyl]-1H-1,3-benzodiazol-2-yl}methyl)-6′-fluoro-1′,2′-dihydrospiro[cyclopropane-1,3′-indole]-2′-one], for which the values for the half-maximal inhibitory concentration (IC50) (in series [1]; with RSV A2 VR-1540) were 10 nM and 4.5 nM, respectively. The same molecule yielded a concentration for an effect of 90% (IC90) in the series on RSV A2 VR-1540 of 41 nM.

In turn, `CS(=O)(=O)C1CCN(CCCn2c(CN3C(=O)C4(CC4)c4ccc(F)cc43)nc3cc(Cl)ccc32)C1` (stereo not shown) [Compound 14, 1′-({5-Chloro-1-[3-(3-methanesulfonylpyrrolidin-1-yl)propyl]-1H-1,3-benzodiazol-2-yl}methyl)-6′-fluoro-1′,2′-dihydrospiro[cyclopropane-1,3′-indole]-2′-one] yielded a half-inhibitory concentration (IC50) in series [1] of 18 nM. Further, in the series on RSV A2 VR-1540, the IC50 turned out to be 3.5 nM and the IC90 came to 34 nM. Moreover, in the series on MDR1, the Papp A→B – broadly, how fast a substance crosses the layer from the apical side – at 60 min, 10 μM was 4.8 ×10⁻⁶ cm/s and the Papp B→A – broadly, how fast a substance crosses the layer from the basolateral side – at 60 min, 10 μM was 68 ×10⁻⁶ cm/s.

The molecule `O=C1N(Cc2nc3cc(Cl)ccc3n2CCCN2CCOCC2)c2cc(F)ccc2C12CC2` [Compound 18, 1′-({5-Chloro-1-[3-(morpholin-4-yl)propyl]-1H-1,3-benzodiazol-2-yl}methyl)-6′-fluoro-1′,2′-dihydrospiro[cyclopropane-1,3′-indole]-2′-one] registered a half-inhibitory concentration (IC50) in series [1] of 70 nM. In the series with RSV A2 VR-1540, this molecule showed a 50% inhibitory concentration (IC50) of 7.6 nM and an IC90 of 60 nM.

As for `CS(=O)(=O)C1CCN(CCCn2c(CN3C(=O)C4(CC4)c4ccc(F)cc43)nc3cc(Cl)ccc32)CC1` [Compound 20, 1′-({5-Chloro-1-[3-(4-methanesulfonylpiperidin-1-yl)propyl]-1H-1,3-benzodiazol-2-yl}methyl)-6′-fluoro-1′,2′-dihydrospiro[cyclopropane-1,3′-indole]-2′-one], the concentration for half-maximal inhibition (IC50) in series [1] is 12 nM. In the series on RSV A2 VR-1540, this molecule showed an IC50 of 5.9 nM and an IC90 of 7.5 nM. In the series with MDR1, the Papp A→B at 60 min, 10 μM was found to be 1.6 ×10⁻⁶ cm/s and the basolateral-to-apical permeability (Papp B→A) at 60 min, 10 μM is 61.3 ×10⁻⁶ cm/s.

For `O=C1N(Cc2nc3cc(Cl)ccc3n2CCCN2CCS(=O)(=O)CC2)c2cc(F)ccc2C12CC2` [Compound 28, 4-{3-[5-Chloro-2-({6′-fluoro-2′-oxo-1′,2′-dihydrospiro[cyclopropane-1,3′-indole]-1′-yl}methyl)-1H-1,3-benzodiazol-1-yl]propyl}-1λ6-thiomorpholine-1,1-dione], the concentration for half-maximal inhibition (IC50) in series [1] is 115 nM. In the series on RSV A2 VR-1540, the midpoint of inhibition, the IC50, lay at 9.5 nM and the 90% effect concentration (IC90) stood at 48 nM.
